Literature values, collected in patent US20100041745A1, “Aigialomycin D and Derivatives Thereof and Their Use in Treating Cancer or Malaria or a Microbial Infection” (priority 2006, published 2010).
In brackets after ≈: the same amount, converted by molar mass.

Assays:
[1] = test system: P. falciparum
[2] = test system: Vero cells
[3] = test system: KB cells

C[C@H]1C/C=C/[C@@H](O)[C@@H](O)CC/C=C/c2cc(O)cc(O)c2C(=O)O1 [aigialomycin D, Aigialomycin D]
IC50 against P. falciparum (anti-malarial activity) [1]: 6.6 µg/mL (≈ 19.7 µM)
IC50 against Vero cells (antitumour activity) [2]: 1.8 µg/mL (≈ 5.38 µM)
IC50 against KB cells (antitumour activity) [3]: 3.0 µg/mL (≈ 8.97 µM)
